# PubChem BioAssay AID2060496 (Molecular Pharmacology Branch, DTP, NCI, 2025)
# Tested on: 276233-004-R-J1-PDC complex spheroid viability
# Assay: Anticancer human tumor 276233-004-R-J1-PDC patient-derived colon adenocarcinoma cell line growth inhibition [GQUAD]
# Settings: for IC50: curve of first compound; for viability, T/C: stronger effect = lower value
# Source text: DNA G-quadruplex Stabilizer Agents in Combinations in Complex Spheroids
# A high-throughput screen of multi-cell type tumor spheroids was designed to identify active combinations of DNA G-quadruplex stabilizer agents and targeted small molecules. Complex spheroids include a stromal component modeled by human endothelial cells (HUVEC) and fibroblasts modeled by human mesenchymal stem cells (MSCs). The concentration ranges selected for each drug and investigational agent were based upon clinically achievable concentrations if the clinical Cmax of the agent was known.
# Compounds. The drugs and investigational agents: pidnarulex (CX-5461; NSC782164), APTO-253 (NSC789042), BRACO-19 (NSC847499), peposertib (NSC802822), ceralasertib (NSC780249), elimusertib (NSC800525), camonsertib (NSC841442), AZD-1390 (NSC803789), olaparib (NSC753686), talazoparib (NSC767125), ART-558 (NSC835418), sotorasib (NSC818433), MRTX-1133 (NSC836407), SN-38 (NSC673596), topotecan (NSC609699), etoposide (NSC141540), doxorubicin (NSC123127), gemcitabine (NSC613327), 5-fluorouracil (NSC19893), paclitaxel (NSC125973), vemurafenib (NSC761431), panobinostat (NSC761190), R-306465 (JNJ-16241199; NSC773264), adavosertib (NSC754352), TP-3654 (NSC805149), carboplatin (NSC241240), KSQ-4279 (NSC840948), and staurosporine (NSC755774) were obtained from the National Cancer Institute (NCI) Developmental Therapeutics Program Chemical Repository (34). The FDA-approved anticancer drug set is available from the NCI Developmental Therapeutics Program. […] The stock solutions were prepared in dimethyl sulfoxide (DMSO, Sigma-Aldrich, St. Louis, MO, cat. D2650) at 800-fold the tested concentration and stored at -70 degrees C prior to their use. All drugs and investigational agents were tested over a range starting from a high concentration at or near the clinical Cmax and decreasing in half-log increments. If the clinical Cmax for an agent had not been determined, the highest concentration tested was 10 microM.
# 2.3 Cell Culture. All cells were maintained in an incubator at 37 degrees C and 5% CO2 with 95% humidity. The PDC lines were cultured according to standard operating procedures established by the NCI PDMR. All PDCs were thawed and cultured in Matrigel-coated flasks prepared with a working solution of 1X Ham's F-12 nutrient mix, without supplementation (Invitrogen, cat. 11765054), 100 U/mL penicillin-streptomycin (Invitrogen, cat. 15140122), and 2.5% Matrigel (Corning Inc., cat. 354248) for the first three passages. The 857933-349-R-J2-PDC line was cultured in 6C/Colon 1B media, which includes advanced DMEM/F-12 (Thermo Fisher Scientific, cat. 12634028), 10 mM HEPES (Thermo Fisher Scientific, cat. 15630080), 1X GlutaMAX supplement (Thermo Fisher Scientific, cat. 35050061), 0.1 mg/mL primocin (InvivoGen, cat. ant-pm-2), 10% defined fetal bovine serum, heat inactivated (HyClone Laboratories Inc., cat. SH30070.03HI), 50% L-WRN conditioned media (ATCC, cat. CRL-3276), 1.25 mM N-Acetyl-L-cysteine (Sigma-Aldrich, cat. A9165), 10 mM nicotinamide (Sigma-Aldrich, cat. N0636), 1X B-27 supplement (Thermo Fisher Scientific, cat. 17504044), 1X N-2 supplement (Thermo Fisher Scientific, cat. 17502048), 10 microM Y-27632 dihydrochloride (Tocris Bioscience, cat. 1254), and 50 ng/mL human EGF recombinant protein (Thermo Fisher Scientific, cat. PHG0311). The 485176-168-R4-J1-PDC line was cultured in Panc media, which includes all 6C/Colon 1B media components plus 100 ng/mL human FGF-10 (Thermo Fisher Scientific, cat. 100-26), 500 nM SB-431542 (Selleckchem, cat. S1067), and gastrin (Tocris, cat. 3006).
# […]
# 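Further: spheroids exposed to drugs for seven days.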
# 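Wherever viability, T/C is given: 100% = DMSO vehicle control viability.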
compound,measurement,setting,value
CC1COCCN1c1cc(C2(S(C)(=N)=O)CC2)nc(-c2ccnc3[nH]ccc23)n1 (configuration not stated) + Cc1cnc(CNC(=O)c2c(=O)c3ccc(N4CCCN(C)CC4)nc3n3c2sc2ccccc23)cn1,IC50,second compound 0.0316 µM,> 10 µM
same,IC50,second compound 0.1 µM,> 10 µM
same,IC50,second compound 0.316 µM,> 10 µM
same,IC50,second compound 1 µM,> 10 µM
same,IC50,second compound 3.16 µM,5.9 µM
same,IC50,second compound 10 µM,> 10 µM
same,"viability, T/C","second compound 0.0316 µM, first compound 0.0316 µM",99%
same,"viability, T/C","second compound 0.0316 µM, first compound 0.1 µM",72.1%
same,"viability, T/C","second compound 0.0316 µM, first compound 0.316 µM",90.8%
same,"viability, T/C","second compound 0.0316 µM, first compound 1 µM",77.4%
same,"viability, T/C","second compound 0.0316 µM, first compound 3.16 µM",75.3%
same,"viability, T/C","second compound 0.0316 µM, first compound 10 µM",60.2%
same,"viability, T/C","second compound 0.1 µM, first compound 0.0316 µM",82%
same,"viability, T/C","second compound 0.1 µM, first compound 0.1 µM",76.5%
same,"viability, T/C","second compound 0.1 µM, first compound 0.316 µM",76%
same,"viability, T/C","second compound 0.1 µM, first compound 1 µM",92.6%
same,"viability, T/C","second compound 0.1 µM, first compound 3.16 µM",80.2%
same,"viability, T/C","second compound 0.1 µM, first compound 10 µM",64.5%
same,"viability, T/C","second compound 0.316 µM, first compound 0.0316 µM",75.2%
same,"viability, T/C","second compound 0.316 µM, first compound 0.1 µM",87.8%
same,"viability, T/C","second compound 0.316 µM, first compound 0.316 µM",83.5%
same,"viability, T/C","second compound 0.316 µM, first compound 1 µM",78.2%
same,"viability, T/C","second compound 0.316 µM, first compound 3.16 µM",79.1%
same,"viability, T/C","second compound 0.316 µM, first compound 10 µM",58.6%
same,"viability, T/C","second compound 1 µM, first compound 0.0316 µM",75.8%
same,"viability, T/C","second compound 1 µM, first compound 0.1 µM",72.3%
same,"viability, T/C","second compound 1 µM, first compound 0.316 µM",72.9%
same,"viability, T/C","second compound 1 µM, first compound 1 µM",58.7%
same,"viability, T/C","second compound 1 µM, first compound 3.16 µM",70.9%
same,"viability, T/C","second compound 1 µM, first compound 10 µM",53%
same,"viability, T/C","second compound 3.16 µM, first compound 0.0316 µM",64.5%
same,"viability, T/C","second compound 3.16 µM, first compound 0.1 µM",67.6%
same,"viability, T/C","second compound 3.16 µM, first compound 0.316 µM",75.4%
same,"viability, T/C","second compound 3.16 µM, first compound 1 µM",69.3%
same,"viability, T/C","second compound 3.16 µM, first compound 3.16 µM",57%
same,"viability, T/C","second compound 3.16 µM, first compound 10 µM",41.9%
same,"viability, T/C","second compound 10 µM, first compound 0.0316 µM",63.3%
same,"viability, T/C","second compound 10 µM, first compound 0.1 µM",66%
same,"viability, T/C","second compound 10 µM, first compound 0.316 µM",73%
same,"viability, T/C","second compound 10 µM, first compound 1 µM",58.8%
same,"viability, T/C","second compound 10 µM, first compound 3.16 µM",65%
same,"viability, T/C","second compound 10 µM, first compound 10 µM",42.8%
